According to patent US20250034139A1, “AMINE COMPOUNDS HAVING ANTI-INFLAMMATORY, ANTIFUNGAL, ANTIPARASITIC, AND ANTICANCER ACTIVITY” (PHARMA CINQ, LLC, priority 2013, published 2025):
Values after ≈ are worked out from the molar mass of the structure shown.

Legend:
[1] = test system: Cryptococcus neoformans (serotype D); assay: Example K: Cryptococcus neoformans (serotype D) growth inhibition; assay type: cell-based; conditions: Cryptococcus deneoformans, OD of 48 hour reading, 37° C., tested 4 to 60 μM, XLfit
Method: Cryptococcus neoformans (serotype D) were plated in 96 well plates with 144 μl/well of 8×10e5 CFU/ml in YM growth medium. Diluted compounds were then added to each well with concentration ranged from 4 to 60 μM as final concentration in duplicates. The plates were inoculated at 37° C. for total of 48 hours. Two readings of OD at 600 nm were measured after 30 and 48 hour treatments.
• 1. Pick a single colony of Cryptococcus from the YM agar plate using the inoculum loop and inoculate into a 125 ml flask containing 25 ml of YM growth medium. • 2. Incubate at 37° C. with shaking at 220 rpm for 24 hours with loosen lid to allow air in and facilitates growth. • 3. Examine an aliquot of the culture under a microscope for yeast cell morphology and lack of bacterial contamination. • 4. Dilute the overnight culture with YM medium at 1:100 dilution and count the number of cells as 1×10^6 cfu/ml. • 5. Make a final concentration of cells suspension at 8×10^5 cfu/ml in YM medium. • 6. Plate 144 μl/well of 8×10^5 cfu/ml cell suspension on 96-well plates. Part-II: Cryptococcus Growth Inhibition Testing with Compounds • 1. From 10 mM DMSO stock solutions, make serial dilutions of compounds to 0.1, 0.2, 0.3, 0.5, 1.0 and 1.5 mM solution. • 2. Add 6 ul each of diluted compound solutions per well in duplicates. The final concentrations were 0, 4, 8, 12, 20, 40 and 60 micromolar. • 3. Incubated all plates at 37° C. overnight (30 hours) with 150 rpm shaking. • 4. Read absorbance at OD600 for each plate. • 5. Leave plates in 37° C. incubator for another day and read absorbance at OD600 again at 48 hours to ensure the inhibitory effect of the compounds. • 6. Calculated the % inhibition and IC50 of each compound against untreated cells.

[2] = test system: Candida albicans strain 3153; assay: Example H: Candida albicans growth inhibition (OD 600 nm); assay type: cell-based; conditions: for MIC: Candida albicans, 3153, 24 hrs at 30° C., YPD, XLfit, read-out: MIC (uM) (99% of inhibition of fungal growth); for IC50: Candida albicans, 3153, read-out: IC50 (uM) (50% inhibition of fungal growth), 24 hrs at 30° C., YPD, XLfit
In short: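 Growth inhibition computed as % versus DMSO control from OD600 after ~24 h at 30° C. Inoculum: washed overnight YPD culture of strain 3153 at 3.5×10^4 CFU/ml in YPD; final compound concentrations 0, 5, 10, 16, 22, 30, 40 μM, duplicate wells.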

[3] = test system: Hep3B hepatocellular carcinoma cell line; conditions: for Tumor Weight (g) Mean ± SEM: Hep3B in liver of nude mice, day 35, oral daily, sorafenib 30 mg/kg/day alone, 20 mg/kg/day in combination, AC 180, AK and AB 360 μmol/kg/day; for Body Weight (g) Mean ± SEM Initial: in vivo; for Complete Regressions: number of mice with no viable tumor at necropsy, day 35, doses as Table 35
Text: Hepatocellular carcinoma (HCC) is one of the most common and lethal cancers worldwide, generally developing as a consequence of chronic infection with hepatitis B or C viruses. […] The Hep3B hepatocellular carcinoma cell line is human in origin, contains genetic traces of hepatitis B virus, and can be injected into the livers of athymic immunocompromised mice as a model of primary HCC. […] The test compounds were all administered orally.
The test compounds of the invention were suspended in 1% hydroxypropylmethylcellulose (HPMC) using a sonicator equipped with a microtip to minimize particle size and maximize uniformity of the suspension. Sorafenib was dissolved in a 1:1 mixture of Cremophor EL and ethanol by heating to 60° C. for 1 minute and then sonicating for 10 minutes to fully suspend. Female nude mice (Hsd:athymic nude-Foxn1^nu) weighing approximately 25 g were anesthetized with ketamine/xylazine, laid on their backs, and a 1-cm transverse incision made through the skin and peritoneum of the left upper abdomen. The mediant lobe of the liver was exposed by applying gentle pressure on the abdomen. 1.5-2×10^6 Hep3B cells in a 20 μL volume of matrigel:EMEM serum free (1:1) were slowly implanted by subserosal injection into the liver using a 27-gauge needle on a Hamilton syringe. The liver was allowed to slip back into place, and the peritoneum was closed with sutures and wound clips.
Mice were divided into 8 groups of mice each following injection of cells; the vehicle/vehicle group comprised 12 mice and the other groups comprised 8 or 9. Mice began receiving oral test drug treatments 48 hr post cell injection.
The test compounds, sorafenib, and vehicles were administered by oral gavage. Sorafenib or its cremophor-containing vehicle were given in the morning and compounds of the invention or their HPMC vehicle was administered in the afternoon each day; all animals received two gavage treatments of drugs or appropriate vehicles daily.

[4] = test system: THP-1 cells; assay: Example D: LPS-triggered THP-1 cell death assay, acute/5-hour and chronic/48-hour; assay type: cell-based, Human; conditions: 10 ng/ml LPS, 0.1 μM test compound, 48 hours
Method: Compounds of the invention were tested at 0.1 μM versus AC in the LPS-triggered THP-1 cell death assay. Both acute/5-hour and chronic/48-hour phases of cell death were assessed. Compounds were screened in batches with DMSO as the negative control and AC as the high activity control.

[5] = test system: Trichophyton rubrum; assay: Example J: Trichophyton rubrum growth inhibition, scoring by eye; assay type: cell-based; conditions: Trichophyton rubrum, 144 h; 6 days at 30° C., tested 6 to 40 μM; read-out: MIC, μM (maximum inhibition concentration, scoring by eye)
Method: Trichophyton grown on two agar plates were collected by scraping into 10 ml saline and filtered through 8 μm filters. […] This experiment included some active compounds from previous experiment and added several untested compounds. […] Following table listed the maximum inhibition concentration (MIC) based on scoring by eye. Scrape frozen Trichophyton culture from ATCC vial and suspended in 100 μl PDB, and then plate on a PDA plate. Incubate plate at 30 C for 4 days. The plate was covered almost full. […] Take OD of collected solution at 520 nm and 600 nm: […] Part-II: […] Add 6 μl each of diluted compound solutions per well in triplicates. […] Wrap the plates with […] incubate all plates at 30° C. for 6 days. • Take picture of the plates on KODAK imager with 17 captures of 1.5 sec/capture for total of 25.5 second exposure.

[6] = test system: PC-3 prostate cancer cells; assay: Example T: sensitisation of PC-3 cells to doxorubicin, oxaliplatin, paclitaxel or vincristine, Wst1; assay type: cell-based, human; conditions: PC-3 cells, 72 hours
[7] = test system: PC3 human prostate cancer cells; assay: Example S: in vitro anticancer screen, PC-3 cells, Wst1; assay type: cell-based; conditions: Homo sapiens, PC-3; 1.5 μM, approximately 20 hours, Wst1; read-out: PC-3, percent of cancer cell survival relative to vehicle treated cells
In short: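 Values give percent survival relative to vehicle, read by Wst1 absorbance (450/630 nm) after 2 h dye incubation, in triplicate. Cells were seeded at 2×10^4/well and treated about 20 h with compound at 0.4, 0.5 or 2.5 μM, depending on compound.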

[8] = test system: 4T1 murine breast cancer cells; assay: Example S: in vitro anticancer screen, 4T1 cells, Wst1; assay type: cell-based, mouse; conditions: Mus musculus, 4T1, 18 h, 18 hr, Wst1
In short: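 Read-out is Wst1 absorbance (450 nm, reference 630 nm) after roughly 2 hr dye incubation, giving percent cell survival versus vehicle. Before that, compounds at 1 μM or 5 μM were applied for 18 hr to 4T1 cells plated at 1×10^4 per well.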

[9] = test system: 4T1 mouse mammary breast cancer cells; assay: Example O: syngeneic 4T1 breast cancer growth in Balb/C mice; assay type: in vivo; conditions: 4T1 in female Balb/C mice
Method: Cancer models in mice generally either involve syngeneic murine tumors in immunocompetent mice or xenografts of human tumors in immunocompromised mice. […] Mice received test compounds by oral gavage in 1% hydroxypropylmethylcellulose from day 2 until day 30. Tumor growth was assessed by caliper measurements twice per week and tumor weight after necropsy, and body weight was also monitored. Treatment groups were: • 1. […] HPMC) • 2. CI (120 μmol/kg/day) • 3. BA (120 μmol/kg/day) • 4. CP (120 μmol/kg/day) • 5. CQ (120 μmol/kg/day) • 6. AA (120 μmol/kg/day) • 7. AC (120 μmol/kg/day)

CCCCCCOc1ccc(CNc2ncnc3ccccc23)cc1 [AB, N-[4-(Hexyloxy)benzyl]quinazolin-4-amine]
IC50 ([1]; read-out: IC50 (concentration for 50% of inhibition)): 1.15 µM | MIC ([1]; read-out: MIC (concentration for maximum-99% of inhibition)): 40.8 µM (≈ 13.7 µg/mL) | MIC [2]: 33 µM (≈ 11.1 µg/mL) | IC50 [2]: 11 µM | Tumor Weight (g) Mean ± SEM [3]: 0.88 ± 0.33 g | Body Weight (g) Mean ± SEM Initial [3]: 26.2 ± 0.7 g | Complete Regressions [3]: 2 | Viable cell percent change, Chronic/48-hour, Mean [4]: 56.56% | MIC [5]: 18 µM (≈ 6.04 µg/mL)

CCCCCCOc1ccc(OCCNc2ccnc3ccccc23)cc1 [BA, N-{2-[4-(Hexyloxy)phenoxy]ethyl}quinolin-4-amine]
MIC [2]: 96.7 µM (≈ 35.3 µg/mL) | IC50 [2]: 34.6 µM | viability at 1.5 µM ([6]; Homo sapiens, compound 1.5 μM alone, Wst1, vehicle = 100, read-out: No Chemo: percent cell survival): 42.4% | Doxorubicin 3.5 μM: percent cell survival ([6]; compound 1.5 μM + doxorubicin 3.5 μM, chemotherapy agent alone normalized to 100%): 167.3% | Oxaliplatin 100 μM: percent cell survival ([6]; compound 1.5 μM + oxaliplatin 100 μM, chemotherapy agent alone normalized to 100%): 146.7% | Paclitaxel 50 μM: percent cell survival ([6]; compound 1.5 μM + paclitaxel 50 μM, chemotherapy agent alone normalized to 100%): 145.7% | Vincristine 100 nM: percent cell survival ([6]; compound 1.5 μM + vincristine 100 nM, chemotherapy agent alone normalized to 100%): 148.7% | Viable cell percent change, Chronic/48-hour, Mean [4]: 41.79% | viability at 1.5 µM [7]: 42.4% | viability at 1 µM ([8]; 1 μM, read-out: 4T1 1 μM, percent of cancer cell survival relative to vehicle treated cells): 71.7% | viability at 5 µM ([8]; 5 μM, read-out: 4T1 5 μM, percent of cancer cell survival relative to vehicle treated cells): 220% | Final Tumor Volume ([9]; 120 μmol/kg/day oral gavage, day 2 to day 30): 641 ± 159 mm^3 | Δ BW % ([9]; 120 μmol/kg/day oral, final vs initial body weight): −2.7% | Final Body Weight ([9]; 120 μmol/kg/day oral, final, in g (unit assumed)): 24.8 ± 2.0 | Initial Body Weight ([9]; 120 μmol/kg/day oral, initial (baseline)): 25.5 ± 1.5 g

CNC(=O)c1cc(Oc2ccc(NC(=O)Nc3ccc(Cl)c(C(F)(F)F)c3)cc2)ccn1 [Sorafenib, sorafenib, reference compound]
Tumor Weight (g) Mean ± SEM [3]: 0.81 ± 0.20 g | Body Weight (g) Mean ± SEM Initial [3]: 25.9 ± 0.7 g | Complete Regressions [3]: 1
